Experimental data published in ChEMBL document CHEMBL4823306, “Synthesis of D-π-A type benzothiazole-pyridinium salt composite and its application as photo-degradation agent for amyloid fibrils” (Bioorg Med Chem Lett, 2021).
Calls of active or inactive are those of the source. No cut-off for these calls is given here.

Key:
[1] = target: Amyloid-beta precursor protein (Homo sapiens) (UniProt P05067); assay: Photo-degradation of Amyloid beta (1 to 42) (unknown origin) assessed as disruption of Co2 induced aggregation at 66.7 uM irradiated with UVA-LED for 1 hr by immunoblotting analysis
Chain of Amyloid-beta precursor protein (Homo sapiens) (P05067 whole entry): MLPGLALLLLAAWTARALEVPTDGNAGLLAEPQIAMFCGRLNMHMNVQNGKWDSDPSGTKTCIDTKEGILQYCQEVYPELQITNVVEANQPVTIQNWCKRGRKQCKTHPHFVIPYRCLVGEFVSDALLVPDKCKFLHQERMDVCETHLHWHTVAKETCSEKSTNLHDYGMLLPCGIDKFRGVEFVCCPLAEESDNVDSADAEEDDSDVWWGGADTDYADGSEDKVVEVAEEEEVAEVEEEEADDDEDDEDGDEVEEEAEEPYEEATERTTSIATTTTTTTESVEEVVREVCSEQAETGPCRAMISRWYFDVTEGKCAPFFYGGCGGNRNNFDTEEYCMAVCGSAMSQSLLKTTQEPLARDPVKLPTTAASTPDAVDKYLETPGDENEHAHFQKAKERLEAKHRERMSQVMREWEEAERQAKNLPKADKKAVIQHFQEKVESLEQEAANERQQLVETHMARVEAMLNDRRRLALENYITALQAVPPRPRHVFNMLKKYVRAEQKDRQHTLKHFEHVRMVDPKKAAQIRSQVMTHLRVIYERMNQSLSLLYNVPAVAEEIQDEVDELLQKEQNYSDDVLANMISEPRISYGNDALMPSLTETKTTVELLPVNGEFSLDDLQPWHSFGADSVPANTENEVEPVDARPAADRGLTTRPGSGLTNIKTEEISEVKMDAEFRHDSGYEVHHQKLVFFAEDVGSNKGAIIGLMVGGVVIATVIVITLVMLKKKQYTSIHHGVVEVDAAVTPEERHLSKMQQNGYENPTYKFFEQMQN

[2] = target: Amyloid-beta precursor protein (Homo sapiens) (UniProt P05067); assay: Photo-degradation of Amyloid beta (1 to 42) (unknown origin) assessed as disruption of Co2 induced aggregation at 66.7 uM irradiated with UVA-LED measured after 5 mins by immunoblotting analysis
HeLa [3] = assay: Dark toxicity in human HeLa cells assessed as reduction in cell viability; type: cell-based
HeLa [4] = assay: Phototoxicity in human HeLa cells assessed as reduction in cell viability irradiated with UVA-LED measured after 60 mins; type: cell-based; conditions: 1 h

inhibition [1]: Active | inhibition [2]: Active
SMILES: CC[n+]1ccc(-c2ccc(-c3nc4ccccc4s3)cc2)cc1.[Br-]
Activity (HeLa [3]): Non-Toxic | Activity (HeLa [4]): Toxic
